Experiments:
[1] = tested on: NDM-1 producing K. pneumoniae clinical strain LA 26; assay: Murine sepsis model: single dose treatment scheme-1; assay type: in vivo, CD-1 mice; settings: single dose 30 mg/kg meropenem + 120 mg/kg β-IDACYD
Experimental: Example 8. In-vivo murine sepsis model: Single dose treatment scheme-1: Neutropenic 7-8 weeks old CD-1 female mice weighing 29 to 32 grams were infected interperitoneally with a lethal dose (10^7 CFU) of the NDM-1 producing K. pneumoniae clinical strain LA 26 as described previously. […] The meropenem/ β-IDACYD combination was administrated in all dosing schemes simultaneously. Blood samples were taken 0, 6, 24 hours and 3 days after injection of a single dose of antibiotic (five infected animals for each timepoint) and were serially diluted in normal saline (10^-1 to 10^-9) and plated on MH agar plates which were incubated for 16 hours at 37 °C for determination of viable organisms. All mice were euthanised 3 days post infection and spleen and liver were harvested. Organs were placed into 1 mL of normal saline on ice and then homogenised. Organ homogenates were then serially diluted in normal saline (10^-1 to 10^-9) and plated on MH agar plates for CFU enumeration. In the absence of therapy 30% of mice remained alive 70 hours post infection. […] The bacterial burden in the blood 70 hours post treatment was relieved by 4.8log10 in the presence of 120 mg/kg of β-IDACYD compared to that of the antibiotic monotherapy. […] In Fig. 7 is shown the bacterial load (CFU/mL) and survival percentage of CD-1 mice infected with a lethal dose (10^7 CFU) of NDM-1 producing K. pneumoniae strain LA26. […] Treatment was given in a form of a single shot 2h after infection and blood was drawn 0h, 6h, 24h and 70h post treatment initiation. All groups were of n=10. Error bars are indicative of SEM (n=2 replicates).

[2] = tested on: NDM-1 producing K. pneumoniae strain LA26; assay: Murine sepsis model: single dose treatment scheme-2; assay type: in vivo, CD-1 mice; settings: single dose 10 mg/kg meropenem + 120 mg/kg β-IDACYD
Experimental: Example 9. […] Blood samples were collected at 0, 6 and 24 hours after injection of a single dose of antibiotic (4 infected animals for each timepoint), were serially diluted in normal saline (10^-1 to 10^-9) and plated on MH agar plates which were incubated for 16 hours at 37°C for determination of viable organisms. […] The resulting 3.0log10 reduction in the blood bacterial load in the presence of 120 mg/kg of the inhibitor β-IDACYD compared to the antibiotic itself confirmed the high repotentiation abilities of the inhibitor to carbapenems even for suboptimal antibiotic doses. […] Treatment was given in a form of a single shot 2h after infection and blood was drawn 0h, 6h and 24h post treatment initiation. All groups were of n=10. Error bars are indicative of SEM (n=2 replicates).

[3] = target: T1, MBL containing crude enzyme preparation (Kpn LA-26 NDM-1) (Klebsiella pneumoniae, UniProt C7C422); assay: 1H NMR monitoring of meropenem hydrolysis by MBL crude enzyme preparation; assay type: biochemical; settings: meropenem 0.18 mM, β-IDACYD 1.9 mM, over a 12 h period
T1 construct: an MBL containing crude enzyme preparation (Kpn LA-26 NDM-1, 485 µL); endogenous in cells; host or cells: Klebsiella pneumoniae clinical strain LA-26 (crude enzyme preparation)
T1 sequence (C7C422 29-270 limits assumed): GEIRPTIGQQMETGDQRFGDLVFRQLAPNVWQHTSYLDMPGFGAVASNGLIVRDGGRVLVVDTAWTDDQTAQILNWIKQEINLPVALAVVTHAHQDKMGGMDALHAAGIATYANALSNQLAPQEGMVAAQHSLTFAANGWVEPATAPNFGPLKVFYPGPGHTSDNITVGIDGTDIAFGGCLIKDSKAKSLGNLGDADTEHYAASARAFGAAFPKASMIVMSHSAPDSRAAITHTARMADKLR

[4] = tested on: NDM producing K. pneumoniae clinical strain LA26; assay: Murine sepsis model: 2-hour intervals treatment scheme; assay type: in vivo, CD-1 mice; settings: 30 mg/kg meropenem + 20 mg/kg β-IDACYD every 2 h for 24 h
Experimental: Example 7. […] The animals were rendered neutropenic (<100 neutrophils/mm^3) by intraperitoneal injection of 150 and 100 mg/kg of cyclophosphamide at day -4 and day -1, respectively, before infection. […] The meropenem/ β-IDACYD combination was administrated in all dosing schemes simultaneously. […] Blood samples were taken 0, 6, 24 hours and 7 days after injection of a single dose of antibiotic (five infected animals for each timepoint) were serially diluted in normal saline (10^-1 to 10^-9) and plated on MH agar plates which were incubated for 16 hours at 37°C for determination of viable organisms. All mice that were alive were euthanised 7 days post infection and spleen and liver were harvested. The organs were placed into 1 mL of normal saline on ice and then homogenised. The organ homogenates were then serially diluted in normal saline (10^-1 to 10^-9) and plated on MH agar for CFU enumeration. Without therapy 90% of mice succumbed to the infection within 24 hours. […] Finally, the bacterial load in the spleen was relieved by 4.2 log10 compared to that of the antibiotic itself. In Fig.6 is shown the bacterial load (CFU/mL) (A) and survival percentage (B) of CD-1 mice infected with a lethal dose (10^7 CFU) of NDM-1 producing K. pneumoniae strain LA26. […] Treatment (initiated at 2 hours post infection) was given every 2h for a 24h period and blood was drawn 0 h, 6 h, 24 h and 140 h post treatment initiation. All groups were of n=10. Spleen and liver (C) from n=5 mice were also removed at 140 h post-treatment initiation the bacterial load [log (CFU/organ)] was determined. Error bars are indicative of SEM (n=2 replicates).

Klebsiella pneumoniae = assay: MIC of β-lactams alone or with 50 µM IDACYD against clinical isolates; assay type: cell-based
Experimental: Further the in-vitro inhibitory activity of IDACYDs was tested against highly resistant pathogens. […] Table 2: Collection of clinical isolates used for in-vitro evaluation

## CO[C@@H]1[C@@H](OC)[C@H]2O[C@H]3[C@H](OC)[C@@H](OC)[C@@H](O[C@H]4[C@H](OC)[C@@H](OC)[C@@H](O[C@H]5[C@H](OC)[C@@H](OC)[C@@H](O[C@H]6[C@H](OC)[C@@H](OC)[C@@H](O[C@H]7[C@H](OC)[C@@H](OC)[C@@H](O[C@H]8[C@H](OC)[C@@H](OC)[C@@H](O[C@@H]1[C@@H](CN(CC(=O)O)CC(=O)O)O2)O[C@@H]8CN(CC(=O)O)CC(=O)O)O[C@@H]7CN(CC(=O)O)CC(=O)O)O[C@@H]6CN(CC(=O)O)CC(=O)O)O[C@@H]5CN(CC(=O)O)CC(=O)O)O[C@@H]4CN(CC(=O)O)CC(=O)O)O[C@@H]3CN(CC(=O)O)CC(=O)O [β-IDACYD]
[1]
  reduction of bacterial load in the liver: 1.4 log10
  reduction of bacterial load in the spleen: 3.8 log10
[1]; 70 hours
  mice rescued (survival): 60%
[1]; 70 hours post treatment
  reduction of bacterial burden in the blood compared to antibiotic monotherapy: 4.8 log10
[2]
  reduction in the blood bacterial load compared to the antibiotic itself: 3.0 log10
[2]; within 48 h
  mice rescued (survival): 50%
[3]
  hydrolysis of meropenem in the presence of β-IDACYD: no signals of hydrolysis of the drug could be observed
[4]; intraperitoneal, 140 hours
  mice protected (survival): 90%
[4]; 140 h
  reduction of the bacterial load in the spleen compared to the antibiotic itself: 4.2 log10
[4]; 140 hours post treatment initiation
  reduction of the bacterial load in blood compared to meropenem monotherapy: 4.0 log10
Klebsiella pneumoniae; isolate 6/100 (VIM)
  Imipenem /50µM β-IDACYD MIC: 1 µg/mL
  Meropenem /50µM β-IDACYD MIC: 1 µg/mL
Klebsiella pneumoniae; isolate 2489 (NDM)
  Imipenem /50µM β-IDACYD MIC: 0.5 µg/mL
  Meropenem /50µM β-IDACYD MIC: 1 µg/mL
Klebsiella pneumoniae; isolate 2685 (VIM, CMY, CTXM)
  Imipenem /50µM β-IDACYD MIC: 0.5 µg/mL
  Meropenem /50µM β-IDACYD MIC: <0.25 µg/mL
Klebsiella pneumoniae; isolate ALX-47 (OXA-48,CTX-M)
  Ceftazidime/ 50µM β-IDACYD MIC: >256 µg/mL
  Imipenem /50µM β-IDACYD MIC: 4 µg/mL
  Meropenem /50µM β-IDACYD MIC: 4 µg/mL
Klebsiella pneumoniae; isolate ESDY-1780 (VIM, KPC)
  Imipenem /50µM β-IDACYD MIC: 8 µg/mL
  Meropenem /50µM β-IDACYD MIC: 32 µg/mL
Klebsiella pneumoniae; isolate ESDY-2681 (VIM-27)
  Imipenem /50µM β-IDACYD MIC: <0.125 µg/mL
  Meropenem /50µM β-IDACYD MIC: <0.25 µg/mL
Klebsiella pneumoniae; isolate ESDY-5742 (IMP)
  Ceftazidime/ 50µM β-IDACYD MIC: 1 µg/mL
  Imipenem /50µM β-IDACYD MIC: <0.125 µg/mL
  Meropenem /50µM β-IDACYD MIC: <0.25 µg/mL
Klebsiella pneumoniae; isolate EY-20S (CMY, SHV)
  Imipenem /50µM β-IDACYD MIC: 2 µg/mL
  Meropenem /50µM β-IDACYD MIC: 4 µg/mL
Klebsiella pneumoniae; isolate IT-17829 (CTXM, SHV)
  Imipenem /50µM β-IDACYD MIC: 0.5 µg/mL
  Meropenem /50µM β-IDACYD MIC: 32 µg/mL
Klebsiella pneumoniae; isolate L078/11 (KPC)
  Imipenem /50µM β-IDACYD MIC: 16 µg/mL
  Meropenem /50µM β-IDACYD MIC: 64 µg/mL
Klebsiella pneumoniae; isolate LA-26 (NDM)
  Imipenem /50µM β-IDACYD MIC: <0.125 µg/mL
  Meropenem /50µM β-IDACYD MIC: <0.25 µg/mL
Klebsiella pneumoniae; isolate LA-27 (NDM, CTXM)
  Imipenem /50µM β-IDACYD MIC: <0.125 µg/mL
  Meropenem /50µM β-IDACYD MIC: <0.25 µg/mL
Klebsiella pneumoniae; isolate LA-28 (NDM, CTXM)
  Ceftazidime/ 50µM β-IDACYD MIC: 32 µg/mL
  Imipenem /50µM β-IDACYD MIC: <0.125 µg/mL
  Meropenem /50µM β-IDACYD MIC: <0.25 µg/mL
Klebsiella pneumoniae; isolate LA-34 (VIM, CMY), first entry of Table 3
  Imipenem /50µM β-IDACYD MIC: <0.5 µg/mL

From patent EP3714904B1, “IMINODIACETIC ACID SUBSTITUTED CYCLODEXTRINS AS POTENTIATORS OF BETA-LACTAM ANTIBIOTICS” (NATIONAL CENTER FOR SCIENTIFIC RESEARCH "DEMOKRITOS" (NCSRD), priority 2019, dated 2020)
